Data published in US12371464B2, “Polypeptides and uses thereof” (MEDIMMUNE LIMITED, priority 2020, dated 2025).
Numbered stars: 1 amine (or outer) side, 2 acyl side, 3 side chain; on linkers, the order of the positions; unused ones are H or OH. Bridge positions count the residues as written; N and C are the ends. Square brackets hold non-standard residues; d marks the D form. Side chains are listed from the residue outwards. Peptide text beside a SMILES is read from it. * marks the point of attachment. C18 diacid = O=C(O)CCCCCCCCCCCCCCCCC(=O)*; γGlu = O=C(O)[C@H](CCC(=O)[*:2])N[*:1]; αMeF = C[C@](N)(Cc1ccccc1)C(=O)O; Dab = NCC[C@H](N)C(=O)O; Aib = CC(C)(N)C(=O)O

Test: Thioflavin T fibrillation assay
Type: physicochemical
Settings: 1 mg/mL in 25 mM sodium acetate buffer pH 4.0, 37° C., 6 days, orbital shaking; >144 h = no increase
Excerpt: Peptide aggregation that form fibrils is an indication of physical instability. Fibril formation in solution poses a significant risk for the stability of injectable peptide drug products. Thioflavin T (ThT) fibrillation assay is a useful tool to assess the aggregation kinetics of a peptide or protein under accelerated and stressed conditions that can be used to forecast the long-term viability of a compound in solution. ThT can selectively bind amyloid fibrils and the resultant complex emits strong fluorescence signal at 482 nm when excited at 450 nm (Anal Biochem. 1989 March; 177 (2): 244-9). Monitoring of the change in fluorescence signal is an established method to study the fibril forming potential of peptides and proteins. ThT (purchased from Sigma Aldrich) stock solution is prepared by dissolving the ThT powder in Milli-Q water and filtered to obtain a 0.25 mM solution. The concentration of the solution is measured at 412 nm using an extinction coefficient of 36 mM-1 cm-1. Test peptides were dissolved at 1 mg/mL in 25 mM sodium acetate buffer pH 4.0. 100 μL aliquot of peptide solution and 5 μL aliquot of ThT solution were placed in a clear bottom black fluorescence 96-well plate. 5 replicates of each test samples were placed in the same row of the plate. Buffer was placed in control wells for baseline correction. All empty wells were filled with water to prevent evaporation. The plate was sealed with aluminium seal and placed in fluorescence plate reader and incubated for 6 days at 37° C. with intermittent orbital shaking at 500 to 750 rpm. The fluorescence intensity was measured every 30 min using excitation at 444 nm and emission at 480 nm. The fibril forming potential of the test peptides was determined by measuring the average time taken to detect an increase in baseline corrected fluorescence intensity.

CC[C@H](C)[C@H](NC(=O)[C@@H]1CCCN1C(=O)CNC(=O)[C@H](Cc1ccccc1)NC(=O)[C@H](CC(N)=O)NC(=O)[C@H](CC(N)=O)NC(=O)[C@H](CO)NC(=O)[C@H](CO)NC(=O)[C@H](Cc1c[nH]cn1)NC(=O)C(C)(C)NC(=O)[C@H](CC(C)C)NC(=O)[C@H](Cc1ccccc1)NC(=O)[C@H](CCN)NC(=O)[C@H](C)NC(=O)[C@H](CC(C)C)NC(=O)[C@H](CCCNC(=N)N)NC(=O)[C@H](CCC(N)=O)NC(=O)[C@@H](NC(=O)[C@H](C)NC(=O)[C@@H]1CSSC[C@H](NC(=O)[C@H](CCCCN)NC(=O)[C@@H](N)CCCCNC(=O)CC[C@H](NC(=O)CCCCCCCCCCCCCCCCC(=O)O)C(=O)O)C(=O)N[C@@H](CC(N)=O)C(=O)N[C@@H]([C@@H](C)O)C(=O)N[C@@H](C)C(=O)N[C@@H]([C@@H](C)O)C(=O)N1)[C@@H](C)O)C(=O)N[C@@H](CC(C)C)C(=O)N1CCC[C@H]1C(=O)N1CCC[C@H]1C(=O)N[C@H](C(=O)N[C@@H](CCC(=O)O)C(=O)N[C@H](C(=O)NCC(=O)N[C@@H](CO)C(=O)N[C@@H](CC(N)=O)C(=O)N[C@H](C(=O)N[C@@H](Cc1ccc(O)cc1)C(N)=O)[C@@H](C)O)C(C)C)[C@@H](C)O [Peptide 156] (H-K([γGlu-C18 diacid])KCNTATCATQRLA[Dab]FL[Aib]HSSNNFGPILPPTEVGSNTY-NH2; disulfide 3-8; N-terminus assumed)
Time taken to detect increase in fluorescence intensity: >144 h

CC[C@H](C)[C@H](NC(=O)[C@@H]1CCCN1C(=O)CNC(=O)[C@H](Cc1ccccc1)NC(=O)[C@H](CC(N)=O)NC(=O)[C@H](CC(N)=O)NC(=O)[C@H](CO)NC(=O)[C@H](CO)NC(=O)[C@H](Cc1c[nH]cn1)NC(=O)[C@@H](NC(=O)[C@H](CC(C)C)NC(=O)[C@H](Cc1ccccc1)NC(=O)[C@H](CC(N)=O)NC(=O)[C@H](C)NC(=O)[C@H](CC(C)C)NC(=O)[C@H](CCCNC(=N)N)NC(=O)[C@H](CCC(N)=O)NC(=O)[C@@H](NC(=O)[C@H](C)NC(=O)[C@@H]1CSSC[C@H](NC(=O)[C@@H](N)CCCCNC(=O)CC[C@H](NC(=O)CCCCCCCCCCCCCCCCC(=O)O)C(=O)O)C(=O)N[C@@H](CC(N)=O)C(=O)N[C@@H]([C@@H](C)O)C(=O)N[C@@H](C)C(=O)N[C@@H]([C@@H](C)O)C(=O)N1)[C@@H](C)O)C(C)C)C(=O)N[C@@H](CC(C)C)C(=O)N1CCC[C@@H]1C(=O)N1CCC[C@H]1C(=O)N[C@H](C(=O)N[C@@H](CC(N)=O)C(=O)N[C@H](C(=O)NCC(=O)N[C@@H](CO)C(=O)N[C@@H](CC(N)=O)C(=O)N[C@H](C(=O)N[C@@H](Cc1ccc(O)cc1)C(N)=O)[C@@H](C)O)C(C)C)[C@@H](C)O [Peptide 104] (H-K([γGlu-C18 diacid])CNTATCATQRLANFLVHSSNNFGPIL[dP]PTNVGSNTY-NH2; disulfide 2-7; N-terminus assumed)
Time taken to detect increase in fluorescence intensity: <5 h

CC[C@H](C)[C@H](NC(=O)[C@@H]1CCCN1C(=O)CNC(=O)[C@H](Cc1ccccc1)NC(=O)[C@H](CC(N)=O)NC(=O)C(C)(C)NC(=O)[C@H](CO)NC(=O)[C@H](CO)NC(=O)[C@H](Cc1c[nH]cn1)NC(=O)[C@H](CCCNC(=N)N)NC(=O)[C@H](CC(C)C)NC(=O)[C@H](Cc1ccccc1)NC(=O)[C@H](CC(N)=O)NC(=O)[C@H](C)NC(=O)[C@H](CC(C)C)NC(=O)[C@H](CCCNC(=N)N)NC(=O)[C@H](CCC(N)=O)NC(=O)[C@@H](NC(=O)[C@H](C)NC(=O)[C@@H]1CSSC[C@H](NC(=O)[C@@H](N)CCCCNC(=O)CC[C@H](NC(=O)CCCCCCCCCCCCCCCCC(=O)O)C(=O)O)C(=O)N[C@@H](CC(N)=O)C(=O)N[C@@H]([C@@H](C)O)C(=O)N[C@@H](C)C(=O)N[C@@H]([C@@H](C)O)C(=O)N1)[C@@H](C)O)C(=O)N[C@@H](CC(C)C)C(=O)N1CCC[C@H]1C(=O)N1CCC[C@H]1C(=O)N[C@H](C(=O)N[C@@H](CCC(=O)O)C(=O)N[C@H](C(=O)NCC(=O)N[C@@H](CO)C(=O)N[C@@H](CC(N)=O)C(=O)N[C@H](C(=O)N[C@@H](Cc1ccc(O)cc1)C(N)=O)[C@@H](C)O)C(C)C)[C@@H](C)O [Peptide 44, K(γE-C18diacid)[CNTATC]ATQRLANFLRHSS(Aib)NFGPILPPTEVGSNTY-amide] (H-K([γGlu-C18 diacid])CNTATCATQRLANFLRHSS[Aib]NFGPILPPTEVGSNTY-NH2; disulfide 2-7; N-terminus assumed)
Time taken to detect increase in fluorescence intensity: >144 h

CC[C@H](C)[C@H](NC(=O)[C@@H]1CCCN1C(=O)CNC(=O)[C@](C)(Cc1ccccc1)NC(=O)[C@H](CC(N)=O)NC(=O)[C@H](CC(N)=O)NC(=O)[C@H](CO)NC(=O)[C@H](CO)NC(=O)[C@H](Cc1c[nH]cn1)NC(=O)[C@H](CCCNC(=N)N)NC(=O)[C@H](CC(C)C)NC(=O)[C@H](Cc1ccccc1)NC(=O)[C@H](CC(N)=O)NC(=O)[C@H](C)NC(=O)[C@H](CC(C)C)NC(=O)[C@H](CCCNC(=N)N)NC(=O)[C@H](CCC(N)=O)NC(=O)[C@@H](NC(=O)[C@H](C)NC(=O)[C@@H]1CSSC[C@H](NC(=O)[C@@H](N)CCCCNC(=O)CC[C@H](NC(=O)CC[C@H](NC(=O)CCCCCCCCCCCCCCCCC(=O)O)C(=O)O)C(=O)O)C(=O)N[C@@H](CC(N)=O)C(=O)N[C@@H]([C@@H](C)O)C(=O)N[C@@H](C)C(=O)N[C@@H]([C@@H](C)O)C(=O)N1)[C@@H](C)O)C(=O)N[C@@H](CC(C)C)C(=O)N1CCC[C@H]1C(=O)N1CCC[C@H]1C(=O)N[C@H](C(=O)N[C@@H](CCC(=O)O)C(=O)N[C@H](C(=O)NCC(=O)N[C@@H](CO)C(=O)N[C@@H](CC(N)=O)C(=O)N[C@H](C(=O)N[C@@H](Cc1ccc(O)cc1)C(N)=O)[C@@H](C)O)C(C)C)[C@@H](C)O [Peptide 18, K(γE-γE-C18diacid)[CNTATC]ATQRLANFLRHSSNN(αMePhe)GPILPPTEVGSNTY-amide] (H-K([γGlu-γGlu-C18 diacid])CNTATCATQRLANFLRHSSNN[αMeF]GPILPPTEVGSNTY-NH2; disulfide 2-7; N-terminus assumed)
Time taken to detect increase in fluorescence intensity: >144 h

CC[C@H](C)[C@H](NC(=O)[C@@H]1CCCN1C(=O)CNC(=O)[C@H](Cc1ccccc1)NC(=O)[C@H](CC(N)=O)NC(=O)[C@H](CCN)NC(=O)[C@H](CO)NC(=O)[C@H](CO)NC(=O)[C@H](Cc1c[nH]cn1)NC(=O)[C@@H](NC(=O)[C@H](CC(C)C)NC(=O)[C@H](Cc1ccccc1)NC(=O)[C@H](CC(N)=O)NC(=O)[C@H](C)NC(=O)[C@H](CC(C)C)NC(=O)[C@H](CCCNC(=N)N)NC(=O)[C@H](CCC(N)=O)NC(=O)[C@@H](NC(=O)[C@H](C)NC(=O)[C@@H]1CSSC[C@H](NC(=O)[C@H](CCCCN)NC(=O)[C@@H](N)CCCCNC(=O)CC[C@H](NC(=O)CCCCCCCCCCCCCCCCC(=O)O)C(=O)O)C(=O)N[C@@H](CC(N)=O)C(=O)N[C@@H]([C@@H](C)O)C(=O)N[C@@H](C)C(=O)N[C@@H]([C@@H](C)O)C(=O)N1)[C@@H](C)O)C(C)C)C(=O)N[C@@H](CC(C)C)C(=O)N1CCC[C@H]1C(=O)N1CCC[C@H]1C(=O)N[C@H](C(=O)N[C@@H](CCC(=O)O)C(=O)N[C@H](C(=O)NCC(=O)N[C@@H](CO)C(=O)N[C@@H](CC(N)=O)C(=O)N[C@H](C(=O)N[C@@H](Cc1ccc(O)cc1)C(N)=O)[C@@H](C)O)C(C)C)[C@@H](C)O [Peptide 28, K(γE-C18diacid)K[CNTATC]ATQRLANFLVHSS(Dab)NFGPILPPTEVGSNTY-amide] (H-K([γGlu-C18 diacid])KCNTATCATQRLANFLVHSS[Dab]NFGPILPPTEVGSNTY-NH2; disulfide 3-8; N-terminus assumed)
Time taken to detect increase in fluorescence intensity: 45 h

CC[C@H](C)[C@H](NC(=O)[C@@H]1CCCN1C(=O)CNC(=O)[C@H](Cc1ccccc1)NC(=O)[C@H](CC(N)=O)NC(=O)C(C)(C)NC(=O)[C@H](CO)NC(=O)[C@H](CO)NC(=O)[C@H](Cc1c[nH]cn1)NC(=O)[C@@H](NC(=O)[C@H](CC(C)C)NC(=O)[C@H](Cc1ccccc1)NC(=O)[C@H](CC(N)=O)NC(=O)[C@H](C)NC(=O)[C@H](CC(C)C)NC(=O)[C@H](CCCNC(=N)N)NC(=O)[C@H](CCC(N)=O)NC(=O)[C@@H](NC(=O)[C@H](C)NC(=O)[C@@H]1CSSC[C@H](NC(=O)[C@H](CCCCN)NC(=O)[C@@H](N)CCCCNC(=O)CC[C@H](NC(=O)CCCCCCCCCCCCCCCCC(=O)O)C(=O)O)C(=O)N[C@@H](CC(N)=O)C(=O)N[C@@H]([C@@H](C)O)C(=O)N[C@@H](C)C(=O)N[C@@H]([C@@H](C)O)C(=O)N1)[C@@H](C)O)C(C)C)C(=O)N[C@@H](CC(C)C)C(=O)N1CCC[C@H]1C(=O)N1CCC[C@H]1C(=O)N[C@H](C(=O)N[C@@H](Cc1c[nH]cn1)C(=O)N[C@H](C(=O)NCC(=O)N[C@@H](CO)C(=O)N[C@@H](CC(N)=O)C(=O)N[C@H](C(=O)N[C@@H](Cc1ccc(O)cc1)C(N)=O)[C@@H](C)O)C(C)C)[C@@H](C)O [Peptide 40, K(γE-C18diacid)K[CNTATC]ATQRLANFLVHSS(Aib)NFGPILPPTHVGSNTY-amide] (H-K([γGlu-C18 diacid])KCNTATCATQRLANFLVHSS[Aib]NFGPILPPTHVGSNTY-NH2; disulfide 3-8; N-terminus assumed)
Time taken to detect increase in fluorescence intensity: >144 h
